Measurements taken from article doi:10.1101/2025.10.24.684335v1 (bioRxiv, 2025).

What was measured:
Type in all cases: cell-based, human
AKT = AKT phosphorylation; details: normalized to GAPDH
ERK = ERK phosphorylation in hCMEC/D3 monolayers, Western blot; details: normalized to GAPDH
RAGE = RAGE expression in hCMEC/D3 membrane fraction, Western blot; details: normalized to calnexin
claudin-5 = experiment: Claudin-5 immunocytochemistry in hCMEC/D3 monolayers, confocal microscopy; details: 10 nM butyrate 6 h, 1 μM Aβ42 for the last hour; AF647 immunofluorescence
[1] = 10 nM butyrate 6 h with 50 nM insulin for 5 min, p<0.05

Compound: insulin: insulin used at 50 nM to stimulate insulin signaling
- AKT phosphorylation vs untreated group (AKT; 50 nM insulin 5 min alone): not statistically significant
- ERK phosphorylation, fold increase vs untreated group (ERK; 50 nM insulin 5 min alone, p<0.001): 3 fold

Compound: Aβ42: unlabeled amyloid beta 42 peptide supplied by Aapptec [reference compound]
- RAGE expression, fold increase vs control (RAGE; 1 μM Aβ42 for 1 h alone, p<0.05): 2.4 fold

Compound: CCCC(=O)O [butyrate, sodium butyrate]
- RAGE expression vs Aβ42 alone (reversal of Aβ42-induced increase) (RAGE; butyrate 5 h then co-incubation with 1 μM Aβ42 for 1 h): not significant
- Claudin-5 expression vs Aβ42 alone group (claudin-5): increased
- AKT phosphorylation, fold increase vs insulin alone-treated group (AKT; [1]): 3 fold
- ERK phosphorylation, fold increase vs insulin alone-treated group (ERK; [1]): ~1.3 fold
